The source of these data is US6627664B2, “Perylenequinones for use as sonosensitizers” (Altachem Pharma Ltd., priority 2001, dated 2003).

One series deals with cells. Particulars: for Photopotentiation Factor: LD50 dark divided by LD50 light; for LD50 Light: light dose not fixed, 0.75-1.0 J/cm2 of 630 nm light. An excerpt: As used herein, “photopotentiation factor” refers to the property of the compound(s) to exert light- or sound-mediated toxicity in excess of its (their) inherent unactivated toxicity. […] Where the term “LD50” has been used above, the term “IC50” may be substituted, to address the bioassays that concern metabolic activity rather than the endpoint of lethality, loss of reproductive capability, or clonogenic death. The relative photoactivation efficiency of a compound may also be determined using a clonogenic assay, an assay that is well known to those skilled in the art.
In accordance with the present invention, a desirable PQP derivative is one that is non-toxic (or of low toxicity) at high drug concentrations without activation, i.e., without light (also referred to as “dark”), and/or without sound, and is toxic at low concentrations when light of the appropriate wavelength, or sound of the appropriate frequency, is applied. As is recognized by those skilled in the art, the most desirable compounds are those that provide a wide range of non-toxic doses in an unactivated state, as this characteristic provides an increased safety factor for the patient.

The nature of series [1]: Light absorption properties (red spectral region, 630 nm). It is filed as physicochemical. As to conditions: for A630: absorbance at 630 nm.
A short description of series [2]: Singlet oxygen (1O2) yield. It is filed as physicochemical.
The test system of series [3] is uterine cervical squamous cell carcinomas. As to conditions: with ultrasound; cited from earlier work.
The next series relates to cell lines. As to conditions: tone-burst and pulsed ultrasound; cited from earlier work.
Series [4] deals with sarcoma 180 cells. Particulars: cited from earlier work; for rate of ultrasound-induced cell damage: 80 μM, insonated, versus ultrasound alone.
Series [5] deals with sarcoma 180 cells. As to conditions: 56 mg/kg administered before insonation; cited from earlier work.
For another series, the system named is HL-60 cells. As to the kind of experiment: Sonodynamic toxicity (insonation, surviving fraction). Format: cell-based, human. As to conditions: for maximum sonotoxic effect: 100 μM to 1000 μM, versus 1000 μM Hp control; for sonotoxicity: up to 100 μM. The procedure:
Sonodynamic toxicity of two perylenequinone derivatives in human promyelocytic leukemia cells in vitro, with respect to a positive control, hematoporphyrin at 1 mM.
HL-60 cells were treated with perylenequinone sensitizers and insonated as described above. The surviving fractions were plotted against sensitizer concentration. […] Cell survival decreased steeply over the next two decades of sensitizer concentration.

For series [6] the following is noted: insonated solutions, TMPone; cited from earlier work.
For series [7] the following is noted: same concentration as Hp; cited from earlier work.

Where two headings read alike, the source gives them in different places. Marks after values point to notes of the source that are not given here. Where only a bound is given, the exact number is not on record here.

For Cystamine-HB [HBAC-R2], in the series on cells, the “Photopotentiation Factor” value came to 2.5 and the “LD50 Light” value turned out to be 5 µM. Further, the “LD50 Dark” value in the series on cells (without light) was 12.5 µM. Further, in [1], the “Abs. Peak in red Spectral region” value came out at 600 nm, the “Extinction Coefficient (× 10^−3) (630 nm)” value (“Extinction Coefficient” for short) was 2.44 × 10^−3 and the A630 is on record as 0.244. Further, in series [1] (solvent DMSO), the Amax/solvent is on record as 0.337/DMSO. Also, in [2], the “^1O2 Yield” value came out at 0.31.
Turning to “2-morpholino-ethyl-aminated-HB [HBAM-R1]”, in the series on cells, the “LD50 Dark” value was more than 25 µM, the “Photopotentiation Factor” value is recorded as more than 6.25 and the “LD50 Light” value is 4 µM. Moreover, the “Abs. Peak in red Spectral region” value in series [1] came to 658 nm. Further, the “^1O2 Yield” value in series [2] amounted to 0.70.
For Ethylenediamine-HB [HBED-R2], in the series with cells, the “Photopotentiation Factor” value is 5-8.3 and the “LD50 Light” value was 3 to 5 µM.
For `COc1cccc2c1C(=O)c1c(O)c3c(c(O)c1C2=O)C[C@@](O)(C(=O)CO)C[C@@H]3O[C@H]1C[C@H](N)[C@H](O)[C@H](C)O1` [doxorubicin], in series [3], the “antitumour effect measured by volume reduction” value is recorded as “significant antitumour effect”.
For the compound HA-Mg^++(Ac2), in the series with cells, the “LD50 Dark” value was more than 25 µM and the “LD50 Light” value is more than 5 µM. In addition, in [1], the “Abs. Peak in red Spectral region” value worked out at 616 nm, the “Extinction Coefficient” value is reported as 4.47 × 10^−3 and the A630 was 0.447. Further, in series [1] (solvent EtOH), the Amax/solvent is 0.958/EtOH. Also, in [2], the “^1O2 Yield” value turned out to be 0.71.
Take Deacetylated-HA [DAHA]: in the series with cells, the “LD50 Dark” value is more than 25 µM and the “LD50 Light” value is more than 5 µM. For the same compound, in series [1], the “Abs. Peak in red Spectral region” value worked out at 622 nm, the “Extinction Coefficient” value is 5.70 × 10^−3 and the A630 worked out at 0.570. Moreover, the “^1O2 Yield” value in series [2] was determined as 0.51.
As to Hypocrellin A [HA, reference compound], in the series with cells, the “Photopotentiation Factor” value was 3-5 and the “LD50 Light” value is 3 to 5 µM. Besides, the “LD50 Dark” value in the series with cells (without light) came to 15 µM. Further, in series [1], the “Abs. Peak in red Spectral region” value is 658* nm, the “Extinction Coefficient” value was 0.86 × 10^−3 and the A630 turned out to be 0.086. For the same compound, the Amax/solvent in series [1] (solvent DMF) is listed as 0.093/DMF. Further, in [2], the “^1O2 Yield” value is 0.84.
As for “2-(N,N-diethyl-amino) ethylamine-HB [HBDD-R2]”, in the series with cells, the “Photopotentiation Factor” value is on record as more than 3.3 and the “LD50 Light” value is 7.5 µM. Besides, the “^1O2 Yield” value in series [2] was 0.36.
Take “2-(N,N-dimethyl-amino) propylamine-HB [HBDP-R1]”: in the series on cells, the “toxicity (in words)” value was “average or lower than average toxicity”, the “Photopotentiation Factor” value is >16.6-50 and the “LD50 Light” value lay in the range of 0.5 to 1.5 µM. Also, in the series on cells (without light), the “LD50 Dark” value is more than 25 µM. Further, the “^1O2 Yield” value in series [2] is on record as 0.42.
On to `CCOC(=O)NC1=C(N2CC2)C(=O)C(NC(=O)OCC)=C(N2CC2)C1=O` [diaziquone], for which the “effect in combination with ultrasound on cytotoxicity” value in the series with cell lines was “synergistic effects”. Besides, the “antitumour effect measured by volume reduction” value in [3] was “significant antitumour effect”.
As for `C=Cc1c(C)c2cc3nc(c4c5[nH]c(cc6nc(cc1[nH]2)C(C)=C6CC)c(C)c5C(=O)[C@@H]4C(=O)OC)[C@@H](CCC(=O)O)[C@@H]3C` [Ph-A, Pheophorbide A], in the series with sarcoma 180 cells [4], the “rate of ultrasound-induced cell damage” value is “double”. The tumor growth result with sarcoma 180 cells [5] is listed as “completely inhibited tumor growth”.
For the compound n-butylaminated HB [HBBA-R2], in the series with cells, the “LD50 Dark” value is more than 100 µM, the “Photopotentiation Factor” value is listed as 167-500 and the “LD50 Light” value lay in the range of 0.2 to 0.6 µM. For the same compound, in the series with cells (wavelengths between at least 630 and 688 nm), the “cell killing with light” value is “capable of killing cells”. In addition, in [1], the “Abs. Peak in red Spectral region” value was 616* nm, the “Extinction Coefficient” value is 6.19 × 10^−3 and the A630 is 0.619. Further, the Amax/solvent in series [1] (solvent CHCl3) is 0.628/CHCl3. Also, the “^1O2 Yield” value in [2] worked out at 0.32.
On to Ethanolamine-HB [HBEA-R2], for which, in the series on cells, the “Photopotentiation Factor” value is on record as 3.3 and the “LD50 Light” value was 7.5 µM. For the same compound, in the series on cells (without light), the “LD50 Dark” value was found to be 25 µM. In addition, the “^1O2 Yield” value in [2] turned out to be 0.70.
For the compound Methylamine-HB [HBMA-IV], in the series on cells, the “Photopotentiation Factor” value is reported as 8.5 and the “LD50 Light” value was determined as 1 µM.
With HB-Mg^++, in the series with cells, the “LD50 Dark” value amounted to 10 µM, the “Photopotentiation Factor” value is given as 10 and the “LD50 Light” value was determined as 1 µM. Also, in series [1], the “Abs. Peak in red Spectral region” value was determined as 622 nm, the “Extinction Coefficient” value is reported as 5.27 × 10^−3 and the A630 is 0.527. Further, the Amax/solvent in [1] (solvent EtOH) was 0.604/EtOH. Moreover, the “^1O2 Yield” value in series [2] turned out to be 0.53.
As for `COc1cccc2c1C(=O)c1c(O)c3c(c(O)c1C2=O)CC(O)(C(=O)COC(=O)CCCCCC(=O)O)CC3OC1OC(C)C(O)C(O)C1F` (stereo not drawn) [FAD 104, 3′-deamino-2′-fluoro-3′-hydroxydoxorubicin-14-pimelate], the “rate of ultrasound-induced cell damage” value in the series with sarcoma 180 cells [4] is given as “doubled”. Also, the “cell damage with compound alone” value in the series with sarcoma 180 cells [4] (no ultrasound) is listed as “no cell damage”.
Regarding Hypocrellin B [HB, reference compound], in the series with cells, the “Photopotentiation Factor” value is 10-13 and the “LD50 Light” value was in the range of 1.5 to 2 µM. In addition, the “LD50 Dark” value with cells (without light) turned out to be 20 µM. Moreover, in [1], the “Abs. Peak in red Spectral region” value was 658* nm, the “Extinction Coefficient” value is 1.00 × 10^−3 and the A630 is 0.100. The Amax/solvent in [1] (solvent DMF) is 0.118/DMF. In addition, the “^1O2 Yield” value in series [2] amounted to 0.74. For the same compound, in the series on EMT6/Ed cells, the “cytotoxicity under uptake conditions” value is given as “not cytotoxic” and the “time until cellular uptake reached equilibrium” value is not above 15 min.
For demethylated HB [DMHB], in the series on cells, the “LD50 Dark” value is more than 25 µM, the “Photopotentiation Factor” value is >5-8.3 and the “LD50 Light” value lay within 3 to 5 µM. Further, in [1], the “Abs. Peak in red Spectral region” value is listed as 648* nm, the “Extinction Coefficient” value was 4.77 × 10^−3 and the A630 was found to be 0.477. In [1] (solvent EtOH), the Amax/solvent was 0.469/EtOH. In [2], the “^1O2 Yield” value is on record as 0.42. In addition, in the series with HL-60 cells, the maximum sonotoxic effect result is “comparable to that of the Hp control” and the sonotoxicity entry is on record as “negligible sonotoxicity”.
`CCCCCCCCCCOC(C)C1=C(C)c2cc3[n-]c(cc4[n-]c(cc5nc(cc1n2)C(C)=C5C(C)OCCCCCCCCCC)c(C)c4CCC(=O)NC(CC(=O)[O-])C(=O)[O-])c(CCC(=O)NC(CC(=O)[O-])C(=O)[O-])c3C.[Ga+3].[H+].[H+].[H+]` (stereo not drawn) [ATX-70, 2,4-bis(1-decyloxyethyl)-Ga(lll)-1,3,5,8-tetramethylporphryin-6,7-dipropionyl diaspartic acid]: the “rate of ultrasound-induced cell damage” value with sarcoma 180 cells [4] is “in excess of four times”. In addition, the “levels of nitroxide relative to solutions containing Hp” value in [6] was 2.5 times. Further, the “ultrasound induced bleaching relative to Hp” value in series [7] was “three times as great”.
Consider 5,8-dibromo-HB [DBHB], for which, in the series with cells, the “LD50 Dark” value came to 10 µM, the “Photopotentiation Factor” value was 3.3 and the “LD50 Light” value amounted to 3 µM. In addition, the “^1O2 Yield” value in series [2] worked out at 0.62. In addition, in the series with HL-60 cells, the maximum sonotoxic effect entry was “comparable to that of the Hp control” and the sonotoxicity result is “negligible sonotoxicity”.
As for Cystamine-HB [HBAC-R1], in the series on cells, the “Photopotentiation Factor” value was determined as 12.5 and the “LD50 Light” value turned out to be 1 µM. Further, in the series with cells (without light), the “LD50 Dark” value is 12.5 µM. Besides, in [1], the “Abs. Peak in red Spectral region” value was found to be 646 nm, the “Extinction Coefficient” value is 3.88 × 10^−3 and the A630 is 0.388. Besides, the Amax/solvent in series [1] (solvent CHCl3) is 0.417/CHCl3. For the same compound, in series [2], the “^1O2 Yield” value amounted to 0.40.
